Results published in patent publication US20120015923A1, “USE OF ANDROGRAPHOLIDE COMPOUNDS FOR TREATING INFLAMMATION AND AIRWAY DISORDERS” (NATIONAL UNIVERSITY OF SINGAPORE, priority 2009, published 2012).

Legend:
OVA-induced AHR = assay: Airway hyper-responsiveness (AHR) to intravenous methacholine; assay type: in vivo, BALB/c mice; conditions: 1 mg/kg; for OVA-induced airway hyperresponsiveness (AHR) to methacholine: OVA-challenged mice
Experimental: Mice were anesthetized and tracheotomy was performed as described above. The internal jugular vein was cannulated and connected to a microsyringe for intravenous methacholine administration. Airway resistance (RI) and dynamic compliance (Cdyn) in response to increasing concentrations of mechacholine were recorded using a whole body plethysmograph chamber (Buxco, Sharon, Conn.) and ventilated mechanically by a ventilator via the tube that was inserted into the trachea at a tidal volume of 200 μl/breadth and a breathing rate of 150/min. Airflow and pressure changes were detected by respective transducers, recorded and analyzed by Biosystem XA software (Buxco, Sharon, Conn., USA). Results are expressed as a percentage of the respective basal values in response to phosphate buffered saline (PBS).

[1] = test system: OVA-induced inflammatory cell recruitment; assay: BAL fluid total and differential inflammatory cell counts, OVA mouse asthma model; assay type: in vivo, BALB/c mice; conditions: for total cell count in BAL fluid: 0.1, 0.5 and 1 mg/kg i.p. 2 h before and 10 h after each challenge; for total cell count in BAL fluid / eosinophil count in BAL fluid: BAL fluid 24 hours after last OVA aerosol, vs DMSO control; for eosinophil count in BAL fluid: 0.1, 0.5 and 1 mg/kg i.p.; for OVA-induced inflammatory cell counts in BAL fluid: sensitized mice 24 hours after last OVA aerosol challenge, 0.1, 0.5, 1 mg/kg
Experimental: Female BALB/c mice (Interfauna, East Yorkshire, UK), were housed in appropriate cages (maximum 4 mice/cage) at the Animal Holding Unit (AHU), NUS. The temperature and humidity of the housing environment were maintained at approximately 22° C. and 55% respectively. Commercial mouse feed and water were provided ad libitum. The beddings were changed three times a week to ensure cleanliness of the living conditions. The handling of mice and the experiments carried out strictly followed the guidelines approved by the Institutional Animal Care and Use Committee (IACUC) of NUS, Singapore.
All mice were acclimatized for at least one week before sensitization. A sensitization mixture was prepared by dissolving 20 μg of OVA and 4 mg of Al(OH)3 in 0.1 ml of Saline. The murine asthma model was developed by sensitizing the mice with 0.1 ml of sensitization mixture on Day 0 and Day 14 using intraperitoneal (i.p.) injections.
The sensitized mice were subjected to airway challenge to produce both the control model as well as the asthma model. A challenge mix was prepared by dissolving 0.15 g OVA into 15 ml of saline solution. The mice were then challenged with aerosolized 1% OVA for 30 minutes on Day 22, 23, 24 to stimulate asthmatic response. A negative control for the asthma model was developed by performing saline challenge on several mice. In this case, 15 ml of saline was used as the challenge mix.
Andrographolide or DDAG alone (0.1, 0.5, and 1 mg/kg; Sigma, St. Louis, Mo.) or vehicle (1% dimethyl sulfoxide [DMSO]) in 0.1 ml saline was given by intraperitoneal injections 2 hour before and 10 hours after each OVA aerosol challenge. Andrographolide or 14-deoxy-11,12-didehydroandrographolide (DDA) were prepared from stock. DMSO was used as a solvent to dissolve Andrographolide or DDA. A stock solution of 10 mg/ml was prepared and stored at −20° C. When used, the stock solution was thawed and diluted with Saline solution to form three different drug concentrations: 0.01 mg/ml, 0.05 mg/ml and 0.1 mg/ml.
Bronchoalveolar lavage (BAL) was conducted on Day 25, 24 hours after the final OVA/saline challenge. Mice were anaesthetized by 0.3 ml i.p. injections of an anesthetic cocktail (ketamine: medetomidine: H2O=3:4:33, Parnell, Alexandria NSW, Australia & Pfizer, Auckland, New Zealand) with 27 G½ sterile needle (PrecisionGlide®). Mice were sacrificed by cervical dislocation 5 minutes after anesthetization. 25 G½ sterile needles (PrecisionGlide®) were used for blood extraction. […] Tracheotomy was then performed and a small transverse incision was made on the exposed trachea. Blunt needles (20 G), which were connected to 1 ml sterile syringes, were inserted into the trachea through this incision and 0.5 ml of ice-cold PBS (4° C.) was instilled thrice into the lungs (0.5 ml×3). About 1.2-1.4 ml of BAL fluid was retrieved from each mouse and was kept in −80° C. for subsequent experiments.
BAL fluid collected from the lungs of the mouse was centrifuged at 3000 rpm for 5 min at 4° C. The supernatant was collected and stored at −80° C. The pellet was resuspended in 200 μl of 0.875% NH4Cl (8.75 mg NH4Cl in 1 ml MilliQ water) and incubated for 5 minutes at room temperature to remove unwanted erythrocytes. The cell suspension was then centrifuged at 3000 rpm for 5 min at 4° C. The supernatant was discarded and the pellet containing inflammatory cells was resuspended in 200 μl of RPMI with 1% BSA (10 mg BSA in 1 ml RPMI). The total number of viable cells was enumerated using a haemocytometer (10 μl of 0.4% trypan blue: 10 μl of cell suspension), under a microscope at 200×magnification.
Following the total cell count, dilutions were performed on the BAL fluid collected with the RPMI/BSA solution (1×10^5 cells per 150 μl of RPMI/BSA). Cytocentrifugation was then carried out on all samples using a Cytospin centrifuge (Thermo Shandon, Pittsburgh, USA) at 600 g for 10 minutes to fix the cells on glass slides. […]

[2] = OVA-challenged, mechanically ventilated mice
[3] = OVA-challenged mice, high dose 1 mg/kg i.p.

| Compound | OVA-induced airway hyperresponsiveness (AHR) to methacholine (OVA-induced AHR) | total cell count in BAL fluid ([1]; OVA-challenged mice) | eosinophil count in BAL fluid ([1]; OVA-challenged mice) | OVA-induced lymphocyte counts in BAL fluid ([1]; OVA-challenged mice, dose not stated) | OVA-induced inflammatory cell counts in BAL fluid [1] | dynamic compliance (Cdyn) in response to methacholine (OVA-induced AHR; [2]) | lung resistance (RI) in response to methacholine (OVA-induced AHR; [2]) | lymphocyte count in BAL fluid [1, 3] | macrophage count in BAL fluid [1, 3] | anti-inflammatory effects in mouse asthma model ([1]; low dose given alone) |
| --- | --- | --- | --- | --- | --- | --- | --- | --- | --- | --- |
| C=C1CC[C@@H]2[C@](C)(CO)[C@H](O)CC[C@@]2(C)[C@@H]1C/C=C1/C(=O)OC[C@H]1O [Andrographolide] | blocked | inhibited | inhibited | inhibited | dose-dependently reduced |  |  |  |  |  |
| C=C1CCC2C(C)(CO)C(O)CCC2(C)C1C=CC1=CCOC1=O (centres unmarked) [DDAG, 14-Deoxy-11,12-didehydroandrographolide] | significantly inhibited | drastically decreased | drastically decreased |  | dose-dependently reduced | restored | dramatically reduced | reduced | reduced | do not show any anti-inflammatory effects |
